The text below walks through data of ChEMBL document CHEMBL3991601, “The target landscape of clinical kinase drugs” (Science, 2017).

Experiment [1] concerns the target RAC-gamma serine/threonine-protein kinase (Homo sapiens, UniProt Q9Y243).
Experiment [2] has as its target T1, Cysteine--tRNA ligase, cytoplasmic (Homo sapiens, UniProt P49589).
T1 sequence (P49589 whole entry): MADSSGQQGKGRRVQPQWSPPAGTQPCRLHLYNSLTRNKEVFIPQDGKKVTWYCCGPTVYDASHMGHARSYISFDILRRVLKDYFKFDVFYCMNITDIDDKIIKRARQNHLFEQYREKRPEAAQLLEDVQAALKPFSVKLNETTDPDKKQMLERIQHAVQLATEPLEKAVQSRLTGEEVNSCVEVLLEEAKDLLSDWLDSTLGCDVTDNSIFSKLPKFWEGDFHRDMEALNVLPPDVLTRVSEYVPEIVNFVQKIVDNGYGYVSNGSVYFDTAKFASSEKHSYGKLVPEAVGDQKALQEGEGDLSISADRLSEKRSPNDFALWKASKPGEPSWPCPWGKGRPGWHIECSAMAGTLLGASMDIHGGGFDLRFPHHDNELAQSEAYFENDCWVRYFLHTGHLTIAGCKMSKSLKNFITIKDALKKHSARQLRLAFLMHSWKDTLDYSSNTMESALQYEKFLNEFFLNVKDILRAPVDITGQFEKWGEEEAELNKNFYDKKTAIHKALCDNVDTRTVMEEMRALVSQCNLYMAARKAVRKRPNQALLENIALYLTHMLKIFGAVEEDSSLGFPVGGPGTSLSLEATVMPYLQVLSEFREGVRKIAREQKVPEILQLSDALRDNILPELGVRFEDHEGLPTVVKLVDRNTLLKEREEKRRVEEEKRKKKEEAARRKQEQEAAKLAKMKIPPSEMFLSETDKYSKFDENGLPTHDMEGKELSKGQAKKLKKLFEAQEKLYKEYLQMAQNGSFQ

The target of experiment [3] is Serine/threonine-protein kinase MRCK alpha (Homo sapiens, UniProt Q5VT25).
Sequence of Serine/threonine-protein kinase MRCK alpha (Q5VT25 whole entry): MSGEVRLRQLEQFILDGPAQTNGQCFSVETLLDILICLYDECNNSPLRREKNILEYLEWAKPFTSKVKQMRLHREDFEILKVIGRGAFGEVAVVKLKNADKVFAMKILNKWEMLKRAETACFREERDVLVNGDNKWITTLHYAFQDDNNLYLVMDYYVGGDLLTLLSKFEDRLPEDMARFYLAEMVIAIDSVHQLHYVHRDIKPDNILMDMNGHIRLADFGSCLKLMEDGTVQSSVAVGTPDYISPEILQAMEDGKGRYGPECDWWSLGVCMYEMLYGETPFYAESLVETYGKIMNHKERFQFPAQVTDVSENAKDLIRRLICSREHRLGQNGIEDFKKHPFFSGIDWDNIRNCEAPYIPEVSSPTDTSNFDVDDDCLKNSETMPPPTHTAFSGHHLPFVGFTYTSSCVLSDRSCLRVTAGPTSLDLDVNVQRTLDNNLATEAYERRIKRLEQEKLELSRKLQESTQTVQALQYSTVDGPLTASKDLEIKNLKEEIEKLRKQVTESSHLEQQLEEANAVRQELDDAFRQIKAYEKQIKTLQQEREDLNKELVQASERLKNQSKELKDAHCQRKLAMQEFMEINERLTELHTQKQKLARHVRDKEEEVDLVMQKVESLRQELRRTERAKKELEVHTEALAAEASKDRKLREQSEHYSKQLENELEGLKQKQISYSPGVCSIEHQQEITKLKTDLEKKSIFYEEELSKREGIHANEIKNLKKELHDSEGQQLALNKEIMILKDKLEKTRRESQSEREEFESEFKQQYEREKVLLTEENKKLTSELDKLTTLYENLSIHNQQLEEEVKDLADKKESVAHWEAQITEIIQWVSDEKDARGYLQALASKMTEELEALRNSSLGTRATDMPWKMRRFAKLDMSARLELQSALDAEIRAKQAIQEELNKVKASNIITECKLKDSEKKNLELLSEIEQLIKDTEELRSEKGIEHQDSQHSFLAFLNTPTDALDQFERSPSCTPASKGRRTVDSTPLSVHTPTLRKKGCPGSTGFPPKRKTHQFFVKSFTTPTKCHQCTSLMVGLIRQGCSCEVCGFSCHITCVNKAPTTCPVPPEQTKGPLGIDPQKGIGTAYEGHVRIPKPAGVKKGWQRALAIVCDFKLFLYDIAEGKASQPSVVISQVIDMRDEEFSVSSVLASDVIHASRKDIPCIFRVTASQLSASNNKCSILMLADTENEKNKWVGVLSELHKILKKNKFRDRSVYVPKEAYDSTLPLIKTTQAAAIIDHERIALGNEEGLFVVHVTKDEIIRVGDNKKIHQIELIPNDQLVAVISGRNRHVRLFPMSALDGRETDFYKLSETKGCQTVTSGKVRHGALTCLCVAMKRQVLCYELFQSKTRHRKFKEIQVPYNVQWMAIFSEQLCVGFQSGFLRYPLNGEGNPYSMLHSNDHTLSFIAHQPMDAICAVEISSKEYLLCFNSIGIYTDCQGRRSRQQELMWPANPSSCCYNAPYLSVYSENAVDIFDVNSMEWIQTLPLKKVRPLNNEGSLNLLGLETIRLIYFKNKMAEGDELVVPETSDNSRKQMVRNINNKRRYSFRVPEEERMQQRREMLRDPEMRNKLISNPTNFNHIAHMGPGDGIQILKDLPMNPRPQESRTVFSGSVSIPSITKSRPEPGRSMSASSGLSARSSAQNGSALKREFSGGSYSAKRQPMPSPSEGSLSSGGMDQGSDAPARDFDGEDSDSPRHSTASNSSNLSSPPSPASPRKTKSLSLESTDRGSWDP
The target in experiment [4] is T2, Dual specificity mitogen-activated protein kinase kinase 6 (Homo sapiens, UniProt P52564).
T2 sequence (P52564 whole entry): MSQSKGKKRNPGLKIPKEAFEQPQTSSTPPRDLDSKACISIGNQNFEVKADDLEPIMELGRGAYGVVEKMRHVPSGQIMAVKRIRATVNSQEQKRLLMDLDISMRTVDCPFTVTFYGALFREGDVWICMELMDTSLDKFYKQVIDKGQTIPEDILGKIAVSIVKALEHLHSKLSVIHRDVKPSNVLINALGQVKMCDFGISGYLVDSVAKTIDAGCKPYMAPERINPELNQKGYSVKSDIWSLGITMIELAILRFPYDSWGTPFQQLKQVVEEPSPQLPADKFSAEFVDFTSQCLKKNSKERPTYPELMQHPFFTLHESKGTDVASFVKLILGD

Experiment [5] addresses T3, Mitogen-activated protein kinase kinase kinase kinase 3 (Homo sapiens, UniProt Q8IVH8).
T3 sequence (Q8IVH8 whole entry): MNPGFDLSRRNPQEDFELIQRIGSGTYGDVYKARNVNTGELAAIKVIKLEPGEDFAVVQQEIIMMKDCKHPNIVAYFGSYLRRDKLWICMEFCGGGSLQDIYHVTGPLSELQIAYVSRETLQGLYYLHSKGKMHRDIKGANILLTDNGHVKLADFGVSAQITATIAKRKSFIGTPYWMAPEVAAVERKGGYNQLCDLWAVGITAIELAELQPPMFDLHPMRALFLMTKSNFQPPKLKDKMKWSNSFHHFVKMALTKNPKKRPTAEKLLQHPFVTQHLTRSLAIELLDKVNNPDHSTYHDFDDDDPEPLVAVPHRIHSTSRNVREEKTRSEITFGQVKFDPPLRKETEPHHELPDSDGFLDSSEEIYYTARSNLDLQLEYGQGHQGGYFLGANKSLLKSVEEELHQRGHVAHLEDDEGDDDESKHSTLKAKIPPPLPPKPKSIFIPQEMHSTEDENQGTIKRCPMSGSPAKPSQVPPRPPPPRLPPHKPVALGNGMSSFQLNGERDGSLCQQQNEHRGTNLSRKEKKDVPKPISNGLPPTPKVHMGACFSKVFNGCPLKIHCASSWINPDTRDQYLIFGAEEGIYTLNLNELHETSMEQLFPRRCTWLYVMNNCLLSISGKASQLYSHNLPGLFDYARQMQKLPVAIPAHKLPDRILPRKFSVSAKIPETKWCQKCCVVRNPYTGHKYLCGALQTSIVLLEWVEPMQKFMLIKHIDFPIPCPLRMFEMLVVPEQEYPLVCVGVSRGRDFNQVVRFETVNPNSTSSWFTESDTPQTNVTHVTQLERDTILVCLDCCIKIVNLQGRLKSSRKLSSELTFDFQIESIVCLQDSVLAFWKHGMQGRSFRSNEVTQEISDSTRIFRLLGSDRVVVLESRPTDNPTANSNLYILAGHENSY

For experiment [6], the target named is Serine/threonine-protein kinase pim-1 (Homo sapiens, UniProt P11309).
Sequence of Serine/threonine-protein kinase pim-1 (P11309 whole entry): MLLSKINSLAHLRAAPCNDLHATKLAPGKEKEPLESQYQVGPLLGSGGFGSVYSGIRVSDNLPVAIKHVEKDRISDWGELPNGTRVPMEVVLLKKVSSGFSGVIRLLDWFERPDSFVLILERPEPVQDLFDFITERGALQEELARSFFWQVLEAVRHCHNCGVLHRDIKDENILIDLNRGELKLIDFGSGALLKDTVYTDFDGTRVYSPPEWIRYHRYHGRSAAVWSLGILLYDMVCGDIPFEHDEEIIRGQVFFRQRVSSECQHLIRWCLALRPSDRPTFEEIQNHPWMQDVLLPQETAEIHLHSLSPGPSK
Experiment [7] concerns the target Receptor-interacting serine/threonine-protein kinase 3 (Homo sapiens, UniProt Q9Y572).
Experiment [8] addresses T4, Serine/threonine-protein kinase ULK3 (Homo sapiens, UniProt Q6PHR2).
T4 sequence (Q6PHR2 whole entry): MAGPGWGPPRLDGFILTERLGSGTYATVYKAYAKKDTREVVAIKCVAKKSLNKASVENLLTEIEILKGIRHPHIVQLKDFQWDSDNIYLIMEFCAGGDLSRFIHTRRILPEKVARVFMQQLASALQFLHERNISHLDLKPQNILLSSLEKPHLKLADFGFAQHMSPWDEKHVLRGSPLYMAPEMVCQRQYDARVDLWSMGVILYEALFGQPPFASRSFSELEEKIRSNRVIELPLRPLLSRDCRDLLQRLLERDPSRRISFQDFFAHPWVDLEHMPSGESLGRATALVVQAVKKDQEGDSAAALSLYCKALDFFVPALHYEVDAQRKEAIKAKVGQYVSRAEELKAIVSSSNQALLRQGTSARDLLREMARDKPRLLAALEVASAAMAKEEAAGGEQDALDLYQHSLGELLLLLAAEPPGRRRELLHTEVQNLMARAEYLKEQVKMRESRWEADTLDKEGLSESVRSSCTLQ

The Kd is the constant that tells how readily two partners part at equilibrium.

Active and inactive are the calls of the source.
Note: in the data inactive means no Kd found up to 30 µM.

Sequence of RAC-gamma serine/threonine-protein kinase (Q9Y243 whole entry): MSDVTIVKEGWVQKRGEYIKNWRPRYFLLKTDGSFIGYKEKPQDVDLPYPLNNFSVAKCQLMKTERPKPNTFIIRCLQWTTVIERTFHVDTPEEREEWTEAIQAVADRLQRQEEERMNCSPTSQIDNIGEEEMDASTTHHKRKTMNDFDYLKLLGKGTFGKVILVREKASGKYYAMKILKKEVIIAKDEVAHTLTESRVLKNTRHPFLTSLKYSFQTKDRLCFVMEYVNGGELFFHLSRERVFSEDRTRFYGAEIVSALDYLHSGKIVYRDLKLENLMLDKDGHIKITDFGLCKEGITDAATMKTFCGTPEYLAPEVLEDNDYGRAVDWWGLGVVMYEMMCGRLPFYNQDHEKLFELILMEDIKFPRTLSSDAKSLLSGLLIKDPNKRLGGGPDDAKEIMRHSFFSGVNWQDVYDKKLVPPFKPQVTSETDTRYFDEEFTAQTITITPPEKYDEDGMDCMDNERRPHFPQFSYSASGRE
Sequence of Receptor-interacting serine/threonine-protein kinase 3 (Q9Y572 whole entry): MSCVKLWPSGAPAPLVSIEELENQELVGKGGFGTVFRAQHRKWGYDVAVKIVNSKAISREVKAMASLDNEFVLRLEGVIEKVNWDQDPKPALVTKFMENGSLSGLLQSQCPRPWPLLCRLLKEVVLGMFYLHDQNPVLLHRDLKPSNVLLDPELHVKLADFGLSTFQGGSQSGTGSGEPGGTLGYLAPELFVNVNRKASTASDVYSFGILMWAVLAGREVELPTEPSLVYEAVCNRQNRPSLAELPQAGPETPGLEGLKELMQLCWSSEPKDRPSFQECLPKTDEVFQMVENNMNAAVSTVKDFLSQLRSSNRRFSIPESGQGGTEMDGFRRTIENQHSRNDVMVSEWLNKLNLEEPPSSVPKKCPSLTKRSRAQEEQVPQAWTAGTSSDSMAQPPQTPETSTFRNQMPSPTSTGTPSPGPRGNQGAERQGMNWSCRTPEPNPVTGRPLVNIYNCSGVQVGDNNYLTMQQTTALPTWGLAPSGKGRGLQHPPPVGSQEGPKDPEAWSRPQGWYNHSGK

Take `COc1cc2c(Nc3ccc(Cl)c(Cl)c3F)ncnc2cc1OC[C@@H]1C[C@@H]2CN(C)C[C@@H]2C1` [TESEVATINIB]: the Kd in experiment [1] is > 30 µM (inactive); in experiment [2] it was > 30 µM (inactive); in experiment [3], > 30 µM (inactive); in experiment [4] it was > 30 µM (inactive); in experiment [5] it was 1.82 µM (active); in experiment [6], > 30 µM (inactive). The figures for the dissociation constant Kd in experiment [7] and in experiment [8] were 0.366 µM (active) and > 30 µM (inactive), respectively.

For `O=C(Cc1ccc(-c2ccc(OCCN3CCOCC3)cc2)cn1)NCc1ccccc1` [TIRBANIBULIN], the Kd in experiment [1], in experiment [2], in experiment [3], in experiment [4], in experiment [5] and in experiment [6] was > 30 µM (inactive) each time. Besides, the Kd in experiment [7] and in experiment [8] was > 30 µM (inactive) throughout.

Turning to `O=C1NC(=O)[C@@H](c2cn3c4c(cccc24)CCC3)[C@@H]1c1c[nH]c2ccccc12` [TIVANTINIB], the Kd in experiment [1], in experiment [2], in experiment [3], in experiment [4], in experiment [5] and in experiment [6] was > 30 µM (inactive) each time. In addition, the Kd in experiment [7] and in experiment [8] was > 30 µM (inactive) throughout.

Regarding `C[C@@H](NC(=O)c1ncnc(N)c1Cl)c1ncc(C(=O)Nc2cc(C(F)(F)F)c(Cl)cn2)s1` [TOVORAFENIB], the Kd in experiment [1], in experiment [2], in experiment [3], in experiment [4], in experiment [5] and in experiment [6] was > 30 µM (inactive) in each case. In addition, the Kd in experiment [7] is 1.8 µM (active); in experiment [8] it was > 30 µM (inactive).

For `Cc1cc(Nc2ncnc3ccc(NC4=NC(C)(C)CO4)cc23)ccc1Oc1ccn2ncnc2c1` [TUCATINIB], the Kd in experiment [1], in experiment [2], in experiment [3], in experiment [4], in experiment [5] and in experiment [6] was > 30 µM (inactive) in each case. Also, the Kd in experiment [7] was 1.06 µM; in experiment [8] it was > 30 µM (inactive).

As to `CC(C)c1cc(CNc2nc(Nc3cc(C4CC4)[nH]n3)cc(N3CCN(C)CC3)n2)on1` [XL-228], the Kd in experiment [1] was > 30 µM (inactive); in experiment [2] it was > 30 µM (inactive); in experiment [3], > 30 µM (inactive); in experiment [4], > 30 µM (inactive); in experiment [5], 0.526 µM (active); in experiment [6] it was > 30 µM (inactive). Also, the Kd in experiment [7] is > 30 µM (inactive); in experiment [8] it was 0.492 µM (active).

In the case of `CN1C/C=C/CCOc2cccc(c2)-c2ccnc(n2)Nc2cccc(c2)C1` [ZOTIRACICLIB], the Kd is > 30 µM (inactive) in experiment [1]; > 30 µM (inactive) in experiment [2]; > 30 µM (inactive) in experiment [3]; > 30 µM (inactive) in experiment [4]; 0.85 µM (active) in experiment [5]; > 30 µM (inactive) in experiment [6]. Further, the Kd in experiment [7] and in experiment [8] was > 30 µM (inactive) throughout.
